Values after ≈ are worked out from the molar mass of the structure shown.
What was measured:
[1] = test system: M. haemolytica; test: MIC determination, broth-microdilution (CLSI VET01-A4), field isolates; assay type: cell-based, Mannheimia haemolytica
Experimental: (§1) This study determined the in vitro activity Compound (A), the enantiomer of the compound of Formula (I), against different isolates of Actinobacillus (A.) pleuropneumoniae, Bordetella (B.) bronchiseptica, Mannheimia (M.) haemolytica, Pasteurella (P.) multocida, Histophilus (H.) somni and Glaesserella parasuis collected in different European countries.
(§2) The in vitro activity was determined by measuring the minimum inhibitory concentrations (MIC) according to CLSI document VET01-A4 [1] and by calculating MIC50 and MIC90.
(§3) A total of 193 field isolates were tested: 31 of A. pleuropneumoniae, 20 of B. bronchiseptica, 20 of H. somni, 20 H. parasuis, 55 of M. haemolytica and 47 of P. multocida. All bacteria were isolated from the respiratory tract of cattle and swine suffering from respiratory disease. All isolates were epidemiologically unrelated as specified by the different suppliers. E. coli ATCC 25922 (ID 6105) and M. haemolytica ATCC 33396 (ID 6374) were used as reference strains for testing isolates of B. bronchiseptica, M. haemolytica and P. multocida. A. pleuropneumoniae ATCC 27090 (ID 6314) and H. somni ATCC 700025 (ID 6315) were used as reference strains for the testing isolates of A. pleuropneumoniae, H. somni and Glaesserella parasuis. Additionally, H. parasuis (G. parasuis) ATCC 19417 was included as type strain for growth control.
(§4) • Mueller-Hinton agar (Becton Dickinson, Lot 9224866) • Cation-adjusted Mueller-Hinton broth, (CAVHB, Becton Dickinson, Lot 8190586) • Sheep blood, defibrinated (Thermo Scientific, Lot 37091500) • Chocolate agar, GC II with IsoVitalex™ (Becton Dickinson, Lot 0147695) • GC-agar base (Becton Dickinson, Lot 6082608) • Hemoglobin solution (Becton Dickinson, Lot 7142854) • Vitox (Oxoid, Lot 2344976) • Veterinary fastidious Medium (VFM), prepared according to CLSI document VET01-A4 [1], containing: • CAMHB (Becton Dickinson, Lot 8190586) • Yeast extract (Sigma, Lot BCBS5470V) • Lysed horse blood (Thermo Scientific, Lot 35875000) • Supplement C™ (Becton Dickinson, Lot 8030960) • Deionized water
(§5) The MICs for all isolates except for H. somni and Glaesserella parasuis isolates, were determined by using the broth-microdilution method according to CLSI document VET01-A4 [1]. For isolates of H. somni and Glaesserella parasuis the agar-dilution method with chocolate agar GC II, was used. The test concentration range for all compounds was 16 μg/mL to 0.016 μg/mL.
(§6) The MIC results were interpreted according to the CLSI document VET01-S3 [2]. […] All wells containing test item were compared with the growth-control wells. The lowest concentration of compound at which no visible growth (i.e. no turbidity) was detected by the unaided eye was recorded as the MIC. If a “trailing endpoint” occurs, the MIC is defined as the first concentration at which a markedly reduction (about 90%) of the inoculum is observed.
(§7) For isolates tested by the agar-dilution method, results were interpreted according to the CLSI document VET01-S3 [2]. […] The MIC50 and MIC90 represent the concentrations at which a minimum of 50% or 90% of the isolates tested are inhibited.

[2] = test system: H. somni; test: MIC determination, broth microdilution, field isolates; assay type: cell-based, Histophilus somni
Experimental: as §1, §2, §3, §4
[…] […] The test concentration range for all compounds was 16 μg/mL to 0.016 μg/mL.
as §6
[…] […] The MIC50 and MIC90 represent the concentrations at which a minimum of 50% or 90% of the isolates tested are inhibited.

[3] = test system: H. somni; test: MIC determination, agar dilution (chocolate agar GC II), field isolates; assay type: cell-based, Histophilus somni
Experimental: as §1, §2, §3, §4, §5, §7

[4] = Injection site reactions in cattle; assay type: in vivo; conditions: injectable pharmaceutical compositions
Experimental: Cattle injected with injectable pharmaceutical compositions containing Compound (A) were evaluated for reactions at the injection site. These injection site reactions were compared to the injection site reactions of cattle injected with injectable pharmaceutical compositions containing Compounds (B) and (C). The compounds were formulated as aqueous solution injectable pharmaceutical compositions or as suspension injectable pharmaceutical compositions as indicated below. These formulations were prepared as described in Examples 1 and 2. Compound (A) was formulated as both an aqueous solution using the free base form of the compound and as a suspense using the dihydrochloride salt of the compound. The composition of the aqueous solution injectable pharmaceutical composition was 15% w/v of Compound A, 15% w/v Poloxamer […], 6% w/v Benzyl Alcohol, 7% w/v Citric Acid, and QS Water. The composition of the suspension injectable pharmaceutical composition was 15% w/v Compound A (17.5% w/v HCl salt of Compound A), 0.1% w/v Kolliphor HS 15 and QS Miglyol 812. Compound A was administered to the animals in a dose of 10 mg/kilogram of body weight. Compound (B) was formulated as both an aqueous solution using the free base form of the compound and as a suspense using the dihydrochloride salt of the compound. The composition of the aqueous solution injectable pharmaceutical composition was 15% w/v of Compound B, 15% w/v Poloxamer […], 6% w/v Benzyl Alcohol, 7% w/v Citric Acid, and QS Water. The composition of the suspension injectable pharmaceutical composition was 15% w/v Compound B (17.5% w/v HCl salt of Compound B), 0.1% w/v Kolliphor HS 15 and QS Miglyol 812. Compound A was administered to the animals in a dose of 10 mg/kilogram of body weight. Compound (C) was formulated as both an aqueous solution using the free base form of the compound. The composition of the aqueous solution injectable pharmaceutical composition was 10% w/v of Compound C, 15% w/v Poloxamer […], 6% w/v Benzyl Alcohol, 7% w/v Citric Acid, and QS Water. Compound A was administered to the animals in a dose of 10 mg/kilogram of body weight. Injection sites were examined clinically by a trained person, Size of the swelling is measured with a ruler to the closest 0.5 cm horizontally, vertical and depth. These three measured values were multiplied to an estimation of the volume of the square box surrounding the observed swelling.

[5] = test system: microbes that cause respiratory disease in animals; test: Activity against the microbes that cause respiratory disease in animals (statement); assay type: cell-based
[6] = Mannheimia haemolytica, 55 isolates, broth microdilution

## COCCNCc1ccc(C#Cc2ccc(C(=O)N[C@H](C(=O)NO)C(C)(C)N)cc2)cc1 [Compound A]
[1]; [6]
  MIC50: 0.5 µg/mL (≈ 1.14 µM)
  MIC90: 0.5 µg/mL (≈ 1.14 µM)
[1]; of 55 isolates tested
  Distribution of MICs: number of isolates with MIC 0.063 μg/mL: 2
  Distribution of MICs: number of isolates with MIC 0.125 μg/mL: 6
  Distribution of MICs: number of isolates with MIC 0.25 μg/mL: 15
  Distribution of MICs: number of isolates with MIC 0.5 μg/mL: 27
  Distribution of MICs: number of isolates with MIC 1 μg/mL: 5
[2]; Histophilus somni, 20 isolates
  MIC50: 0.5 µg/mL (≈ 1.14 µM)
  MIC90: 1 µg/mL (≈ 2.28 µM)
[2]; of 20 isolates tested
  Distribution of MICs: number of isolates with MIC 0.125 μg/mL: 1
  Distribution of MICs: number of isolates with MIC 0.25 μg/mL: 5
  Distribution of MICs: number of isolates with MIC 0.5 μg/mL: 8
  Distribution of MICs: number of isolates with MIC 1 μg/mL: 5
  Distribution of MICs: number of isolates with MIC 2 μg/mL: 1
[3]; Histophilus somni, 20 isolates
  MIC50: 1 µg/mL (≈ 2.28 µM)
  MIC90: 2 µg/mL (≈ 4.56 µM)
[3]; of 20 isolates tested
  Distribution of MICs: number of isolates with MIC 0.25 μg/mL: 1
  Distribution of MICs: number of isolates with MIC 0.5 μg/mL: 1
  Distribution of MICs: number of isolates with MIC 1 μg/mL: 14
  Distribution of MICs: number of isolates with MIC 2 μg/mL: 4
[4]
  Injection site reactions, overall assessment: minor injection reactions which were resolved by Day 6
[4]; listed as Compound (A)
  Injection site reactions, overall assessment: tolerated at the injection site
[5]
  Activity against the microbes that cause respiratory disease in animals: activity against the microbes that cause respiratory disease in animals
